Reference: publication PMC12363935, “Unc-51 Like Kinase 3 (ULK3) is essential for autophagy and cell survival in multiple myeloma” (Research Square, 2025)
pIC50: −log10 of the molar value.

Key:
[1] = test system: U266-Luc MM cells; assay: U266-Luc in vivo model, tail vein injection; settings: 10 mg/kg/day, M-F, from day 20; days post-tumor inoculation
Procedure: For the U266-Luc model, 1 × 10^6 cells (100 μl/PBS) were tail vein injected into 4- to 6-week-old female and male NSG mice. […] Endpoint was represented by hind limb paralysis or >20% weight loss. When sacrificed, tumors tibiae were harvested and fixed in 10% neutral buffered formalin for 24 hours. Bioluminescent signal is reported as the average of the sum of dorsal and ventral signal of the mice/group/timepoint. […]
28 Animal Experimentation: All animal experiments were performed with approval from the
29 Moffitt/University of South Florida Institutional Animal Care and Use Committee (Protocol
31 validation of MA9 efficacy (Figure 4), we initially included n = 10 mice per treatment group:
Randomization based on sex, weight,
33 and initial tumor burden was conducted, followed by treatment with either vehicle control (n = 6),
35 Tumor progression was tracked via bioluminescence: endpoint was paralysis or >20% weight loss.
36 Experiments were blinded. […]
38 For MA9 therapy efficacy, mice were treated with vehicle (n=10) or MA9 (10 mg/kg/day,
39 subcutaneously, M-F from day 20; n=10) (Supplementary Fig. 7E, F). Survival and toxicity
40 (weight, clinical signs) was monitored.
43 Luciferase-labeled MM cells 5TGM1-Luc (RRID: CVCL_VI66) and U266-Luc (RRID: […]
51 cells (all from the ATCC, USA) were routinely cultured at 37 °C in Roswell Park Memorial
53 FBS1) and penicillin/streptomycin (hereafter, complete medium).
54 Cells were not used for five days following PI-treatment. All myeloma cell lines were […]

[2] = test system: U266-PSR; assay: MTS cell viability assay; type: cell-based; settings: 48h, Fig. 6E, read-out: IC50, Survival (%)
Procedure: (§1) Myeloma cell lines were plated in 96-well plates (2 × 10^5 cells/ml) and treated with vehicle control (HPβCD) and test compounds. Cell viability was assessed at 48 hours using the MTS assay (CellTiter 96, CAT# G3582). Absorbance was measured at 490 nm after a 2-hour incubation at 37°C. IC50 values were calculated using Prism software (version 9.3.1), and synergy matrices were generated with Combenefit Software.

[3] = test system: U266; assay: MTS cell viability assay; type: cell-based; settings: Homo sapiens, U-266; U266, 48h, Fig. 6E; read-out: IC50, Survival (%)
Procedure: as §1

[4] = test system: autophagy proteins in U266 MM cells; assay: Immunoblot densitometry of autophagy proteins; type: cell-based, Human; settings: U266, 6h, MA9-060 1μM, JQ1 10μM, CQ 1μM; for LC3II densitometry: CTRL 0.34; for LC3I densitometry: CTRL 3.01; for ULK1 densitometry: CTRL 7.21; for ULK3 densitometry: CTRL 15.17
Procedure: Figure 3. Anti-myeloma activity of the MA9–060 autophagy inhibitor. A. Chemical structure of the autophagy inhibitor MA9–060. […] Chloroquine (CQ) (1μM) served as a positive control for autophagy inhibition. C. […] Hoechst 33342 dye appears here as the nuclear blue staining (Multiple comparisons ANOVA, p <0.0001).
157 5872S). Protein concentration was quantified by Thermo Scientific™ Pierce™ BCA™ Protein
30 μg protein was loaded to 10%-15% gel and ran at
159 100V for 2 hours. Later protein was transferred to PVDF membrane and blocked with 5% skimmed
160 milk in TBST (10 mM Tris/HCl pH8.0, 0.12M NaCl, 0.1% Tween 20) containing 5% BSA [8] for
163 at 4°C overnight. Membranes were washed 3 times,10 minutes with TBS. Then incubated with
164 appropriate secondary antibodies at 1:1000 ratio in skimmed milk or 2% BSA. The membranes
165 were washed again 3 times for 10 minutes with TBST. ECL reagents were added to the membrane
166 and blot was developed by LICOR Imaging Studio.
167 All immunoblotting assays were performed at least in three replicates and representative
168 images are shown. Commercially available antibodies and their dilutions are listed in
169 Supplementary Table 5. Immunoblotting images were acquired and quantified using LICOR
170 Image Studio Quant software. […]

[5] = test system: autophagy in U266 MM cells; assay: CYTO-ID autophagy detection; type: cell-based, Human
Procedure: Autophagic activity was monitored using the Cyto-ID Green Autophagy Detection Kit (Enzo Life Sciences, ENZ-51031-K200, USA) as per manufacturer’s instructions. Further details and protocols for quantitative analysis by Flow Cytometry and Confocal Microscopy are provided in Supplementary Materials.
248 80% confluence. Cells were pelleted again and re-suspended in Resuspension Buffer R (Neon 10
249 μl kit Invitrogen) to a final concentration of 1 × 10^7 cells/ml. 1 × 10^6 cells were then transferred to
250 a sterile 1.5 ml microcentrifuge tube (Sarstedt), brought to 10 μl final volume of cell suspension
251 with Buffer R, and mixed with Alt-R CRISPR-Cas9 crRNA: Hs.Cas9.ULK3.1.AA (position
253 […]), (Integrated DNA Technologies). Alt-R CRISPR-Cas9
254 Negative Control RNA #1 (CAT# 1079138) was used in NTC control. Cells were counted,
255 electroporated and seeded in a 24-well plate with 0.5 ml of pre-warmed supplemented RPMI
258 Measurement of autophagic activity - CytoID Assay
260 autophagic compartments. Cells were washed and treated with 1 μM tested compound or vehicle
261 control for 6h under standard tissue culture conditions. […]
270 later, cells were washed and assessed by flow cytometry. […]
272 compensation and fluorescence-minus-one (FMO) controls were generated in parallel. […]
273 fluorescence intensity (MFI) and percentage of Cyto-ID Green-expressing MM singlet live (DAPI […]

[6] = test system: MM cells (5TGM1, 8226, and U266); assay: MTS assay on MM cells; type: cell-based
Procedure: as §1

SMILES	median survival [1] [days]	pIC50 [2]	pIC50 [3]	LC3II densitometry [4]	LC3I densitometry [4]	ULK1 densitometry [4]	ULK3 densitometry [4]	effect on autophagy [5]	effect on cell survival [6]
CCN(CC)CCCC(C)Nc1ccnc2cc(Cl)ccc12 (centres unmarked) [CQ, Chloroquine]	81.5	2.06	4.26	0.14	1.69	0.78	11.1	–	–
Cc1sc2c(c1C)C(c1ccc(Cl)cc1)=N[C@@H](CC(=O)OC(C)(C)C)c1nnc(C)n1-2 [JQ1]	90.5	–	–	0.40	3.36	6.20	16.81	no effect	–
N#CC[C@H](C1CCCC1)n1cc(-c2ncnc3[nH]ccc23)cn1 [ruxolitinib]	–	–	–	–	–	–	–	–	no effect
